According to article PMC7056829, “Reversal Effect of ALK Inhibitor NVP-TAE684 on ABCG2-Overexpressing Cancer Cells” (Frontiers in Oncology, 2020):

Tests used:
[1] = molecular target: T1, ABCG2 (Homo sapiens, UniProt Q9UNQ0)
T1 sequence (Q9UNQ0 1-655): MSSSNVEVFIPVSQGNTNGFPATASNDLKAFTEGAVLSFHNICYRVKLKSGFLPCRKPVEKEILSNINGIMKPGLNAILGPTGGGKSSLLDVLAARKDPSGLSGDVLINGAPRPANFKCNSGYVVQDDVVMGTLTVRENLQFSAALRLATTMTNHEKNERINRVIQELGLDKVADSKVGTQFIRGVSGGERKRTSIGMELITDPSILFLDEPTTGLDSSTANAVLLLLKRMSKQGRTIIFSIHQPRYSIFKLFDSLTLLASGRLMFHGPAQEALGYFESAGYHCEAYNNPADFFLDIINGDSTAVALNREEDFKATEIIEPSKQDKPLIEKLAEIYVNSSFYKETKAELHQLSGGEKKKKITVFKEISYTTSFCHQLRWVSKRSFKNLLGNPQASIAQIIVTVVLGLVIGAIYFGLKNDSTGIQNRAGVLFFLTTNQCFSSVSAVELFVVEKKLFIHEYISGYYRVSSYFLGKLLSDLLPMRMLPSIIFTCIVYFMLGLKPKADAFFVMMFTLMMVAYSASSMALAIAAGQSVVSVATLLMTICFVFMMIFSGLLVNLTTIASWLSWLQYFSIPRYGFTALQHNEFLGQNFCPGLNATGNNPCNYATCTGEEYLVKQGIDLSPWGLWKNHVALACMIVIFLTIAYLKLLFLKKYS

[2] = molecular target: T1, ABCG2; assay: ATPase stimulation in ABCG2-overexpressing membrane vesicles; assay type: biochemical; design: ABCG2 membrane vesicles that overexpressed ABCG2

Row | Compound | [3H]-mitoxantrone accumulation and efflux in NCI-H460/MX20 versus parental NCI-H [1] | EC50 [2] [nM]
1 | O=C1c2c(O)ccc(O)c2C(=O)c2c(NCCNCCO)ccc(NCCNCCO)c21 [Mitoxantrone] | NVP-TAE684 significantly reduced the extrusion of [^3H]-mitoxantrone in NCI-H460/MX20 cells | –
2 | COc1cc(N2CCC(N3CCN(C)CC3)CC2)ccc1Nc1ncc(Cl)c(Nc2ccccc2S(=O)(=O)C(C)C)n1 [NVP-TAE684] | – | 91
